Source: patent US20020071842A1, “Soluble CD1 compositions and uses thereof” (priority 2000, published 2002)

Tests used:
[1] = test system: 24.7.C hybridoma; test: Plate-bound mCD1d fusion protein hybridoma stimulation assay (IL-2 ELISA); type: cell-based, mouse; conditions: 24 7.C NKT hybridoma; plate-bound mCD1d-IgGFc2a fusion protein preincubated with lipid antigen
Outline: (§1)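 Fusion protein (400-600 ng/well) captured on protein A plates; lipid added in PBS pH 7.2, 40:1 default ratio; 24-48 hr 37° C; washed; hybridomas 1×10^5/well, 16-20 hr 37° C; IL-2 ELISA vs standard curve. Some wells: anti-mCD1d 19G11 at 20 μg/ml final.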

[2] = test system: VII68 hybridoma; test: as above; type: cell-based, mouse; conditions: VII68 diverse TCR hybridoma; plate-bound mCD1d-IgGFc2a fusion protein preincubated with lipid antigen
Outline: as §1

[3] = test system: Vβ/9 hybridoma; test: as above; type: cell-based, mouse; conditions: Vβ/9 NKT hybridoma; plate-bound mCD1d-IgGFc2a fusion protein preincubated with lipid antigen
Outline: as §1

[4] = test system: KT/23 hybridoma; test: as above; type: cell-based, mouse; conditions: KT/23 NKT hybridoma; plate-bound mCD1d-IgGFc2a fusion protein preincubated with lipid antigen
Outline: as §1

[5] = test system: 24.9.E hybridoma; test: as above; type: cell-based, mouse; conditions: 24.9 E NKT hybridoma; plate-bound mCD1d-IgGFc2a fusion protein preincubated with lipid antigen
Outline: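 IL-2 (pg/ml) by sandwich ELISA, regressed on a murine IL-2 standard curve, reports stimulation of hybridomas (1×10^5/well, 16-20 hr, 37° C) on immobilized mCD1d fusion protein pre-pulsed with lipid, 40:1 molar ratio by default, 24-48 hr at 37° C.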

[6] = test system: VIII24 hybridoma; test: as above; type: cell-based, mouse; conditions: VIII24 diverse TCR hybridoma; plate-bound mCD1d-IgGFc2a fusion protein preincubated with lipid antigen
Outline: as §1

[7] = test system: 14S.7.N hybridoma; test: as above; type: cell-based, mouse; conditions: 14S.7.N diverse TCR hybridoma; plate-bound mCD1d-IgGFc2a fusion protein preincubated with lipid antigen
Outline: as §1

[8] = test system: 14S.6.A hybridoma; test: as above; type: cell-based, mouse; conditions: 14S.6.A diverse TCR hybridoma; plate-bound mCD1d-IgGFc2a fusion protein preincubated with lipid antigen
Outline: as §1

[9] = test system: KT/22 hybridoma; test: as above; type: cell-based, mouse; conditions: KT/22 NKT hybridoma; plate-bound mCD1d-IgGFc2a fusion protein preincubated with lipid antigen
Outline: as §1

[10] = test system: 14S.15.A hybridoma; test: as above; type: cell-based, mouse; conditions: 14S.15.A diverse TCR hybridoma; plate-bound mCD1d-IgGFc2a fusion protein preincubated with lipid antigen
Outline: as §1

[11] = test system: DN32D3 hybridoma; test: as above; type: cell-based, mouse; conditions: DN32D3 NKT hybridoma; plate-bound mCD1d-IgGFc2a fusion protein preincubated with lipid antigen
Outline: as §1

[12] = test system: XV104 hybridoma; test: as above; type: cell-based, mouse; conditions: XV104 diverse TCR hybridoma; plate-bound mCD1d-IgGFc2a fusion protein preincubated with lipid antigen
Outline: as §1

[13] = test system: KT/7 hybridoma; test: as above; type: cell-based, mouse; conditions: KT/7 NKT hybridoma; plate-bound mCD1d-IgGFc2a fusion protein preincubated with lipid antigen
Outline: as §1

[14] = test system: 14S.10.C hybridoma; test: as above; type: cell-based, mouse; conditions: 14S.10 C diverse TCR hybridoma; plate-bound mCD1d-IgGFc2a fusion protein preincubated with lipid antigen
Outline: as §1

[15] = test system: KT/12 hybridoma; test: as above; type: cell-based, mouse; conditions: KT/12 NKT hybridoma; plate-bound mCD1d-IgGFc2a fusion protein preincubated with lipid antigen
Outline: as §1

[16] = test system: XV19 hybridoma; test: as above; type: cell-based, mouse; conditions: XV19 diverse TCR hybridoma; plate-bound mCD1d-IgGFc2a fusion protein preincubated with lipid antigen
Outline: as §1

[17] = test system: 24.8.A hybridoma; test: as above; type: cell-based, mouse; conditions: for IL-2 response to mCD1d fusion protein pre-treated with purified or synthetic lipid: 24.8.A hybridoma, compared to untreated or buffer treated fusion protein; for IL-2 secretion: 24.8 A NKT hybridoma, plate-bound mCD1d-IgGFc2a fusion protein preincubated with lipid antigen
Outline: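 Protein A plates were loaded with 400-600 ng/well mCD1d fusion protein, then given lipid antigen (40:1 molar ratio to fusion protein unless specified) in PBS pH 7.2 for 24-48 h at 37 °C. After washing, 1×10^5 hybridoma cells/well were added for 16-20 h at 37 °C. Secreted IL-2 measured by sandwich ELISA against a murine IL-2 standard curve.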

[18] = test system: human CD1d-restricted T cell clones; test: Flow cytometric staining with lipid treated multimerized CD1d-Fc aggregates; type: cell-based; conditions: flow cytometry; human CD1d-Fc/Alexa 488 protein A aggregate, 40:1 lipid to fusion protein, compared with DMSO alone
Procedure: To facilitate binding to CD1 specific T cells for detection by flow cytometry, a highly multimerized form of the CD1d fusion protein was formed using fluorescently labeled protein A molecules. Protein A molecules spontaneously associate in solution at neutral pH with immunoglobulin Fc regions, forming complexes containing four Fc molecules and two protein A molecules (4+2 complexes, reference 2). The human CD1d-Fc fusion protein was incubated with Alexa 488 dye labeled protein A, and the 4+2 complexes purified by size exclusion chromatography on a Pharmacia Superose 6 column using PBS pH 7.2 as a running buffer. The purified 4+2 aggregates were concentrated to 100 μg/ml with ovalbumin as a carrier protein. The CD1d-Fc aggregate was then pre-incubated for 24 to 48 hours at 37° C. with antigenic glycolipids dissolved in DMSO at a 40:1 molar ratio of lipid to fusion protein, or with an equivalent volume of DMSO alone as a negative control. The T cell staining was performed at room temperature or 4° C. for 20 min, at a concentration of 40 μg/ml of the lipid or control treated CD1d-Fc aggregate.
To facilitate binding to CD1 specific T cells for detection by flow cytometry, a highly multimerized form of the CD1d fusion protein is formed using fluorescently labeled protein A molecules. Protein A molecules spontaneously associate in solution at neutral pH with immunoglobulin Fc regions, forming complexes containing four Fc molecules and two protein A molecules (4+2 complexes, Langone, J.J. et al, Molec. and Cell. Biochem, 65(2):159-70 (1985)). The human CD1d-Fc fusion protein was incubated with Alexa 488-dye labeled protein A, and the 4+2 complexes purified by size exclusion chromatography on a Phannacia Superose 6 column using PBS pH 7.2 as a running buffer. The purified 4+2 aggregates are concentrated to 100 μg/ml with ovalbumin as a carrier protein. The CD1d-Fc aggregate is then pre-incubated for 24 to 48 hours at 37° C. with antigenic glycolipids dissolved in DMSO at a 40:1 molar ratio of lipid to fusion protein, or with an equivalent volume of DMSO alone as a negative control. The T cell staining is performed at room temperature or 4° C. for 20 min, at a concentration of 40 μg/ml of the lipid or control treated CD1d-Fc aggregate.
Flow cytometric analysis of a CD1d-restricted T cell clone stained with the multimerized CD1d-Fc fusion protein (abbreviated as “hd(8)-fl”) was performed as follows. Staining with CD1d-Fc treated with lipid antigens dissolved in DMSO was compared with CD1d-Fc treated with DMSO alone as a negative control. The specific lipid antigen used were: aGalCer is α-galactosyl ceramide (KRN7000); aGlcCer is α-glucosyl ceramide; aManCer is α-mannosyl ceramide; bGalCer is β-galactosyl ceramide; Cer is ceramide (acylphytosphingolipid).
Flow cytometric analysis of a series of human T cell clones stained with the multimerized CD1d-Fc fusion protein, treated with α-GalCer or DMSO alone also was performed, including staining of two different CD1d-restricted (“NKT”) T cell clones DN2.B9 and DN1.10B3. Four other T cell clones that are not CD1d-restricted also were stained.

Row | Substance | IL-2 secretion [1] | IL-2 secretion [2] | IL-2 secretion [3] | IL-2 secretion [4] | IL-2 secretion [5] | IL-2 secretion [6] | IL-2 secretion [7] | IL-2 secretion [8] | IL-2 secretion [9] | IL-2 secretion [10] | IL-2 secretion [11] | IL-2 secretion [12] | IL-2 secretion [13] | IL-2 secretion [14] | IL-2 secretion [15] | IL-2 secretion [16] | IL-2 response to mCD1d fusion protein pre-treated with purified or synthetic lipid [17] | IL-2 secretion [17] | staining of CD1d-restricted T cell clones by lipid treated CD1d-Fc aggregate [18]
1 | phosphatidylcholine [PC] | 0 (A “0” indicates a mean of less than 50 pg/ml IL-2 was secreted) | 0 (A “0” indicates a mean of less than 50 pg/ml IL-2 was secreted) | 0 (A “0” indicates a mean of less than 50 pg/ml IL-2 was secreted) | 0 (A “0” indicates a mean of less than 50 pg/ml IL-2 was secreted) | 0 (A “0” indicates a mean of less than 50 pg/ml IL-2 was secreted) | 0 (A “0” indicates a mean of less than 50 pg/ml IL-2 was secreted) | 0 (A “0” indicates a mean of less than 50 pg/ml IL-2 was secreted) | 0 (A “0” indicates a mean of less than 50 pg/ml IL-2 was secreted) | 0 (A “0” indicates a mean of less than 50 pg/ml IL-2 was secreted) | 0 (A “0” indicates a mean of less than 50 pg/ml IL-2 was secreted) | 0 (A “0” indicates a mean of less than 50 pg/ml IL-2 was secreted) | 0 (A “0” indicates a mean of less than 50 pg/ml IL-2 was secreted) | 0 (A “0” indicates a mean of less than 50 pg/ml IL-2 was secreted) | 0 (A “0” indicates a mean of less than 50 pg/ml IL-2 was secreted) | 0 (A “0” indicates a mean of less than 50 pg/ml IL-2 was secreted) | 0 (A “0” indicates a mean of less than 50 pg/ml IL-2 was secreted) | did not reproducibly significantly enhance reactivity | + (“+” indicates 50-250 pg/ml) | 
2 | phosphatidylserine [PS] | 0 (A “0” indicates a mean of less than 50 pg/ml IL-2 was secreted) | 0 (A “0” indicates a mean of less than 50 pg/ml IL-2 was secreted) | 0 (A “0” indicates a mean of less than 50 pg/ml IL-2 was secreted) | 0 (A “0” indicates a mean of less than 50 pg/ml IL-2 was secreted) | 0 (A “0” indicates a mean of less than 50 pg/ml IL-2 was secreted) | 0 (A “0” indicates a mean of less than 50 pg/ml IL-2 was secreted) | 0 (A “0” indicates a mean of less than 50 pg/ml IL-2 was secreted) | 0 (A “0” indicates a mean of less than 50 pg/ml IL-2 was secreted) | 0 (A “0” indicates a mean of less than 50 pg/ml IL-2 was secreted) | 0 (A “0” indicates a mean of less than 50 pg/ml IL-2 was secreted) | 0 (A “0” indicates a mean of less than 50 pg/ml IL-2 was secreted) | 0 (A “0” indicates a mean of less than 50 pg/ml IL-2 was secreted) | 0 (A “0” indicates a mean of less than 50 pg/ml IL-2 was secreted) | 0 (A “0” indicates a mean of less than 50 pg/ml IL-2 was secreted) | 0 (A “0” indicates a mean of less than 50 pg/ml IL-2 was secreted) | 0 (A “0” indicates a mean of less than 50 pg/ml IL-2 was secreted) | did not reproducibly significantly enhance reactivity | + (“+” indicates 50-250 pg/ml) | 
3 | sphingomyelin | 0 (A “0” indicates a mean of less than 50 pg/ml IL-2 was secreted) | 0 (A “0” indicates a mean of less than 50 pg/ml IL-2 was secreted) | 0 (A “0” indicates a mean of less than 50 pg/ml IL-2 was secreted) | 0 (A “0” indicates a mean of less than 50 pg/ml IL-2 was secreted) | 0 (A “0” indicates a mean of less than 50 pg/ml IL-2 was secreted) | 0 (A “0” indicates a mean of less than 50 pg/ml IL-2 was secreted) | 0 (A “0” indicates a mean of less than 50 pg/ml IL-2 was secreted) | 0 (A “0” indicates a mean of less than 50 pg/ml IL-2 was secreted) | 0 (A “0” indicates a mean of less than 50 pg/ml IL-2 was secreted) | + (“+” indicates 50-250 pg/ml) | 0 (A “0” indicates a mean of less than 50 pg/ml IL-2 was secreted) | 0 (A “0” indicates a mean of less than 50 pg/ml IL-2 was secreted) | 0 (A “0” indicates a mean of less than 50 pg/ml IL-2 was secreted) | 0 (A “0” indicates a mean of less than 50 pg/ml IL-2 was secreted) | 0 (A “0” indicates a mean of less than 50 pg/ml IL-2 was secreted) | 0 (A “0” indicates a mean of less than 50 pg/ml IL-2 was secreted) |  | + (“+” indicates 50-250 pg/ml) | 
4 | α-glucosyl ceramide [α-GlcCer] |  |  |  |  |  |  |  |  |  |  |  |  |  |  |  |  |  |  | positive staining
5 | α-mannosyl ceramide [α-ManCer] |  |  |  |  |  |  |  |  |  |  |  |  |  |  |  |  |  |  | did not stain above background levels
